Measured values published in patent US10829796B2, “Bacteria identification and antimicrobial susceptibility test” (priority 2015, dated 2020).

System: bacteria in clinical bovine mastitis milk samples
Assay: Combined bacteria identification and antimicrobial susceptibility test (colour of wells, MIC) on clinical bovine mastitis milk samples
Assay type: cell-based
Method: Clinical bovine mastitis milk samples were collected by a vet clinic in South Island, New Zealand. Samples were stored in the freezer for several months and shipped frozen to the testing facility. In this Example, the term “clinical” means that dairy cows had clinical symptoms of an udder infection e.g. cow behaved unusual, milk clots, swollen udder among other typical symptoms. Testing was executed in microwell plate comprising of 24 wells (3×8 wells).
In addition, 20 ul of clinical mastitis sample was added to each well with a laboratory pipette.
(§1) Abbreviations • 1. 80 ul GC+10 ul Tell: 80 ul Giolitti Cantoni base broth+10 ul Tellurite solution (1%); • 2. 80 ul TSB/Esc/Fer Cit: 80 ul Tryptic soy broth containing 0.25% Esculin and 0.125% Ammonium Ferric Citrate; • 3. 80 ul TSB/Esc/Fer Cit+10 ul Genta: 80 ul Tryptic soy broth containing 0.25% Esculin and 0.125% Ammonium Ferric Citrate+10 ul of Gentamycin solution 10 mg/ml; • 4. 80 ul McC/PR25: 80 ul MacConkey broth (single strength) containing 0.0125% phenol red; and • 5. 80 ul TSB/PR25: 80 ul Tryptic soy broth containing 0.0125% phenol red. Bacteria Identification
Columns A to C and rows 1 and 2 were used for bacteria identification. A1: coagulase positive Staph; A2: Staphylococci; B1: Strep group D; B2: Strep group D; C1: general enrichment media (gram+ and gram-bacteria); C2: coliform bacteria.
Column A3 to A8: serial dilution of benzyl penicillin as potassium. Column B3 to B8: serial dilution of ceftiofur as hydrochloride. Column C3 to C8: serial dilution of cloxacillin as sodium. Antibiotic concentrations are listed as free form ranging between 4 ug/ml to 0.05 ug/ml.
Minimum inhibitory substance concentration (MIC) is here defined as the concentration if a colour change occurs between two wells (one well remains red with drug concentration 1, the other one yellow with drug concentration 2, whereas drug concentration 1 is larger than drug concentration 2) then the MIC is the value of drug concentration 1.
Table 21 indicates the microwell plate configuration #1; Drugs: Benzylpenicillin as potassium; Cloxacillin as sodium; Ceftiofur as hydrochloride; Drug concentration in each well (A3 to C8) is based on 80 μl composition+10 μl drug solution+20 μl clinical mastitis milk sample and equivalent to listed drug concentration in μg/ml; 20 ul of clinical bovine mastitis milk sample was added to each well (A1 to C8).
In addition, each well received one drop of clinical sample from a transfer pipette which was on average about 35 mg. This was determined through weighing the well plate prior and after the addition of clinical mastitis samples. This weight was then divided by 24.
as §1, with “•” for “Abbreviations •”, “red.” for “red. Bacteria Identification”
Columns A to C and rows 1 and 2 were used for bacteria identification. A1: coagulase positive Staph; A2: Staphylococci; B1: Strep Group D; B2: -; C1: general enrichment media (gram+ and gram-); C2: coliform bacteria.
Column A3 to A8: serial dilution of benzyl penicillin as potassium. Drug concentrations given as free form ranging between 4 ug/ml to 0.05 ug/ml. Column B3 to B8: serial dilution of ceftiofur as hydrochloride. Drug concentrations given as free form ranging between 4 ug/ml to 0.05 ug/ml. Column C3 to C8: serial dilution of cloxacillin as sodium. Drug concentrations given as free form ranging between 4 ug/ml to 0.05 ug/ml.

## CC1(C)S[C@@H]2[C@H](NC(=O)Cc3ccccc3)C(=O)N2[C@H]1C(=O)O [benzyl penicillin]
ID 5 to 8, T = 0 h (prior incubation, reference), plate configuration #2, drug 1 μg/ml
  Colour of media in each well: red
ID 5 to 8, T = 0 h (prior incubation, reference), plate configuration #2, drug 2 μg/ml
  Colour of media in each well: red
ID 5 to 8, T = 0 h (prior incubation, reference), plate configuration #2, drug 4 μg/ml
  Colour of media in each well: red
ID 6, T = 23h, 37° C., plate configuration #2, drug 0.05 μg/ml (Table 31)
  Colour of media in each well: yellow
ID 6, T = 23h, 37° C., plate configuration #2, drug 0.1 μg/ml (Table 31)
  Colour of media in each well: yellow
ID 6, T = 23h, 37° C., plate configuration #2, drug 0.5 μg/ml (Table 31)
  Colour of media in each well: yellow
ID 6, T = 23h, 37° C., plate configuration #2, drug 1 μg/ml (Table 31)
  Colour of media in each well: yellow
ID 6, T = 23h, 37° C., plate configuration #2, drug 2 μg/ml (Table 31)
  Colour of media in each well: yellow
ID 6, T = 23h, 37° C., plate configuration #2, drug 4 μg/ml (Table 31)
  Colour of media in each well: yellow
ID 6, T~7 h, 37° C., plate configuration #2, Table 35, drug 0.05 μg/ml
  Colour of media in each well: yellow
ID 6, T~7 h, 37° C., plate configuration #2, Table 35, drug 0.1 μg/ml
  Colour of media in each well: yellow
ID 6, T~7 h, 37° C., plate configuration #2, Table 35, drug 0.5 μg/ml
  Colour of media in each well: yellow
ID 6, T~7 h, 37° C., plate configuration #2, Table 35, drug 1 μg/ml
  Colour of media in each well: yellow
ID 6, T~7 h, 37° C., plate configuration #2, Table 35, drug 2 μg/ml
  Colour of media in each well: yellow
ID 6, T~7 h, 37° C., plate configuration #2, Table 35, drug 4 μg/ml
  Colour of media in each well: yellow
ID 6, T~11 h, 37° C., plate configuration #2, Table 35, drug 0.05 μg/ml
  Colour of media in each well: yellow
ID 6, T~11 h, 37° C., plate configuration #2, Table 35, drug 0.1 μg/ml
  Colour of media in each well: yellow
ID 6, T~11 h, 37° C., plate configuration #2, Table 35, drug 0.5 μg/ml
  Colour of media in each well: yellow
ID 6, T~11 h, 37° C., plate configuration #2, Table 35, drug 1 μg/ml
  Colour of media in each well: yellow
ID 6, T~11 h, 37° C., plate configuration #2, Table 35, drug 2 μg/ml
  Colour of media in each well: yellow
ID 6, T~11 h, 37° C., plate configuration #2, Table 35, drug 4 μg/ml
  Colour of media in each well: yellow
ID 6, T~23 h, 37° C., plate configuration #2, Table 35, drug 0.05 μg/ml
  Colour of media in each well: yellow
ID 6, T~23 h, 37° C., plate configuration #2, Table 35, drug 0.1 μg/ml
  Colour of media in each well: yellow
ID 6, T~23 h, 37° C., plate configuration #2, Table 35, drug 0.5 μg/ml
  Colour of media in each well: yellow
ID 6, T~23 h, 37° C., plate configuration #2, Table 35, drug 1 μg/ml
  Colour of media in each well: yellow
ID 6, T~23 h, 37° C., plate configuration #2, Table 35, drug 2 μg/ml
  Colour of media in each well: yellow
ID 6, T~23 h, 37° C., plate configuration #2, Table 35, drug 4 μg/ml
  Colour of media in each well: yellow
ID 7, T = 23h, 37° C., plate configuration #2, drug 0.05 μg/ml
  Colour of media in each well: yellow
ID 7, T = 23h, 37° C., plate configuration #2, drug 0.1 μg/ml
  Colour of media in each well: yellow
ID 7, T = 23h, 37° C., plate configuration #2, drug 0.5 μg/ml
  Colour of media in each well: red
ID 7, T = 23h, 37° C., plate configuration #2, drug 1 μg/ml
  Colour of media in each well: red
ID 7, T = 23h, 37° C., plate configuration #2, drug 2 μg/ml
  Colour of media in each well: red
ID 7, T = 23h, 37° C., plate configuration #2, drug 4 μg/ml
  Colour of media in each well: red
ID 8, T = 23 h, 37° C., plate configuration #2, drug 0.05 μg/ml
  Colour of media in each well: red
ID 8, T = 23 h, 37° C., plate configuration #2, drug 0.1 μg/ml
  Colour of media in each well: red
ID 8, T = 23 h, 37° C., plate configuration #2, drug 0.5 μg/ml
  Colour of media in each well: red
ID 8, T = 23 h, 37° C., plate configuration #2, drug 1 μg/ml
  Colour of media in each well: red
ID 8, T = 23 h, 37° C., plate configuration #2, drug 2 μg/ml
  Colour of media in each well: red
ID 8, T = 23 h, 37° C., plate configuration #2, drug 4 μg/ml
  Colour of media in each well: red
Table 24, sample ID 2, 22 hours at 37° C., plate configuration #1, row 3 of serial dilution 4 ug/ml to 0.05 ug/ml
  Colour of media in each well: orange
Table 24, sample ID 2, 22 hours at 37° C., plate configuration #1, row 4 of serial dilution 4 ug/ml to 0.05 ug/ml
  Colour of media in each well: orange
Table 24, sample ID 2, 22 hours at 37° C., plate configuration #1, row 5 of serial dilution 4 ug/ml to 0.05 ug/ml
  Colour of media in each well: orange
Table 24, sample ID 2, 22 hours at 37° C., plate configuration #1, row 6 of serial dilution 4 ug/ml to 0.05 ug/ml
  Colour of media in each well: yellow
Table 24, sample ID 2, 22 hours at 37° C., plate configuration #1, row 7 of serial dilution 4 ug/ml to 0.05 ug/ml
  Colour of media in each well: yellow
Table 24, sample ID 2, 22 hours at 37° C., plate configuration #1, row 8 of serial dilution 4 ug/ml to 0.05 ug/ml
  Colour of media in each well: yellow
Clinical sample ID 1 (streptococci group D), 37° C. for 22 hours, plate configuration #1
  MIC: 0.1 µg/mL
Clinical sample ID 2 (streptococci group D, also coagulase positive Staph), 37° C. for 22 hours, plate configuration #1
  MIC: > 4 µg/mL
Clinical sample ID 4 (coagulase positive Staph), 37° C. for 22 hours, plate configuration #1
  MIC: > 4 µg/mL
Clinical sample ID 5 (streptococci group D), 37° C. for 23 hours, plate configuration #2
  MIC: < 0.05 µg/mL
Clinical sample ID 7 (coagulase positive Staph), 37° C. for 23 hours, plate configuration #2
  MIC: 0.5 µg/mL
Clinical sample ID 8 (coagulase negative Staph and Streptococci group D), 37° C. for 23 hours, plate configuration #2
  MIC: < 0.05 µg/mL
